The NIST ThermoML archive (doi:10.1021/je200721d)
± gives the expanded uncertainty stated by the source.

Assay: xn = mol fraction of the nth substance listed
Settings: Liquid, Vibrating tube method

CCCCCCCC [octane] + CCCCCC
Settings	mass density [kg/m3]
313.14 K, 18000 kPa, x2 = 0.1654	697.47 ± 0.39
313.14 K, 18000 kPa, x2 = 0.5749	683.06 ± 0.41
313.14 K, 18000 kPa, x2 = 0.7995	672.32 ± 0.42
313.14 K, 18000 kPa, x2 = 0.9308	665.28 ± 0.43
313.14 K, 19000 kPa, x2 = 0.1654	698.27 ± 0.4
313.14 K, 19000 kPa, x2 = 0.5749	683.89 ± 0.42
313.14 K, 19000 kPa, x2 = 0.7995	673.21 ± 0.43
313.14 K, 19000 kPa, x2 = 0.9308	666.2 ± 0.44
313.14 K, 20000 kPa, x2 = 0.1654	699.05 ± 0.41
313.14 K, 20000 kPa, x2 = 0.5749	684.72 ± 0.43
313.14 K, 20000 kPa, x2 = 0.7995	674.07 ± 0.44
313.14 K, 20000 kPa, x2 = 0.9308	667.1 ± 0.45
313.14 K, 21000 kPa, x2 = 0.1654	699.81 ± 0.42
313.14 K, 21000 kPa, x2 = 0.5749	685.52 ± 0.44
313.14 K, 21000 kPa, x2 = 0.7995	674.92 ± 0.45
313.14 K, 21000 kPa, x2 = 0.9308	667.97 ± 0.46
313.14 K, 22000 kPa, x2 = 0.1654	700.55 ± 0.43
313.14 K, 22000 kPa, x2 = 0.5749	686.32 ± 0.45
313.14 K, 22000 kPa, x2 = 0.7995	675.74 ± 0.46
313.14 K, 22000 kPa, x2 = 0.9308	668.8 ± 0.47
313.14 K, 23000 kPa, x2 = 0.1654	701.28 ± 0.44
313.14 K, 23000 kPa, x2 = 0.5749	687.1 ± 0.46
313.14 K, 23000 kPa, x2 = 0.7995	676.52 ± 0.47
313.14 K, 23000 kPa, x2 = 0.9308	669.6 ± 0.48
313.14 K, 24000 kPa, x2 = 0.1654	701.98 ± 0.44
313.14 K, 24000 kPa, x2 = 0.5749	687.85 ± 0.46
313.14 K, 24000 kPa, x2 = 0.7995	677.27 ± 0.48
313.14 K, 24000 kPa, x2 = 0.9308	670.36 ± 0.49
313.14 K, 25000 kPa, x2 = 0.1654	702.7 ± 0.45
313.14 K, 25000 kPa, x2 = 0.5749	688.59 ± 0.47
313.14 K, 25000 kPa, x2 = 0.7995	677.99 ± 0.49
313.14 K, 25000 kPa, x2 = 0.9308	671.1 ± 0.5
323.06 K, 1000 kPa, x2 = 0.5749	658.22 ± 0.27
323.06 K, 2000 kPa, x2 = 0.5749	659.25 ± 0.28
323.06 K, 3000 kPa, x2 = 0.5749	660.31 ± 0.28
323.06 K, 4000 kPa, x2 = 0.5749	661.34 ± 0.29
323.06 K, 5000 kPa, x2 = 0.5749	662.42 ± 0.3
323.06 K, 6000 kPa, x2 = 0.5749	663.46 ± 0.31
323.06 K, 7000 kPa, x2 = 0.5749	664.53 ± 0.32
323.06 K, 8000 kPa, x2 = 0.5749	665.61 ± 0.33
323.06 K, 9000 kPa, x2 = 0.5749	666.67 ± 0.33
323.06 K, 10000 kPa, x2 = 0.5749	667.73 ± 0.34
323.06 K, 11000 kPa, x2 = 0.5749	668.78 ± 0.35
323.06 K, 12000 kPa, x2 = 0.5749	669.81 ± 0.36
323.06 K, 13000 kPa, x2 = 0.5749	670.83 ± 0.37
323.06 K, 14000 kPa, x2 = 0.5749	671.84 ± 0.38
323.06 K, 15000 kPa, x2 = 0.5749	672.81 ± 0.39
323.06 K, 16000 kPa, x2 = 0.5749	673.78 ± 0.4
323.06 K, 17000 kPa, x2 = 0.5749	674.72 ± 0.41
323.06 K, 18000 kPa, x2 = 0.5749	675.63 ± 0.42
323.06 K, 19000 kPa, x2 = 0.5749	676.52 ± 0.43
323.06 K, 20000 kPa, x2 = 0.5749	677.38 ± 0.43
323.06 K, 21000 kPa, x2 = 0.5749	678.25 ± 0.44
323.06 K, 22000 kPa, x2 = 0.5749	679.1 ± 0.45
323.06 K, 23000 kPa, x2 = 0.5749	679.9 ± 0.46
323.06 K, 24000 kPa, x2 = 0.5749	680.71 ± 0.47
323.06 K, 25000 kPa, x2 = 0.5749	681.47 ± 0.48
323.07 K, 1000 kPa, x2 = 0.2199	672.17 ± 0.26
323.07 K, 2000 kPa, x2 = 0.2199	673.14 ± 0.27
323.07 K, 3000 kPa, x2 = 0.2199	674.14 ± 0.28
323.07 K, 4000 kPa, x2 = 0.2199	675.13 ± 0.28
323.07 K, 5000 kPa, x2 = 0.2199	676.14 ± 0.29
323.07 K, 6000 kPa, x2 = 0.2199	677.12 ± 0.3
323.07 K, 7000 kPa, x2 = 0.2199	678.12 ± 0.31
323.07 K, 8000 kPa, x2 = 0.2199	679.13 ± 0.32
323.07 K, 9000 kPa, x2 = 0.2199	680.12 ± 0.32
323.07 K, 10000 kPa, x2 = 0.2199	681.12 ± 0.33
323.07 K, 11000 kPa, x2 = 0.2199	682.09 ± 0.34
323.07 K, 12000 kPa, x2 = 0.2199	683.06 ± 0.35
323.07 K, 13000 kPa, x2 = 0.2199	684.02 ± 0.36
323.07 K, 14000 kPa, x2 = 0.2199	684.97 ± 0.37
323.07 K, 15000 kPa, x2 = 0.2199	685.89 ± 0.38
323.07 K, 16000 kPa, x2 = 0.2199	686.79 ± 0.38
323.07 K, 17000 kPa, x2 = 0.2199	687.68 ± 0.39
323.07 K, 18000 kPa, x2 = 0.2199	688.54 ± 0.4
323.07 K, 19000 kPa, x2 = 0.2199	689.38 ± 0.41
323.07 K, 20000 kPa, x2 = 0.2199	690.21 ± 0.42
323.07 K, 21000 kPa, x2 = 0.2199	691.03 ± 0.43
323.07 K, 22000 kPa, x2 = 0.2199	691.83 ± 0.44
323.07 K, 23000 kPa, x2 = 0.2199	692.58 ± 0.45
323.07 K, 24000 kPa, x2 = 0.2199	693.35 ± 0.45
323.07 K, 25000 kPa, x2 = 0.2199	694.1 ± 0.46
323.08 K, 1000 kPa, x2 = 0.1654	674.04 ± 0.26
323.08 K, 2000 kPa, x2 = 0.1654	675.02 ± 0.27
323.08 K, 3000 kPa, x2 = 0.1654	676 ± 0.28
323.08 K, 4000 kPa, x2 = 0.1654	676.97 ± 0.28
323.08 K, 5000 kPa, x2 = 0.1654	677.97 ± 0.29
323.08 K, 6000 kPa, x2 = 0.1654	678.97 ± 0.3
323.08 K, 7000 kPa, x2 = 0.1654	679.95 ± 0.31
323.08 K, 8000 kPa, x2 = 0.1654	680.93 ± 0.31
323.08 K, 9000 kPa, x2 = 0.1654	681.93 ± 0.32
323.08 K, 10000 kPa, x2 = 0.1654	682.9 ± 0.33
323.08 K, 11000 kPa, x2 = 0.1654	683.88 ± 0.34
323.08 K, 12000 kPa, x2 = 0.1654	684.84 ± 0.35
